# Reference: patent publication US10058538B2, “Compositions comprising substituted benzofuroquinolizine and α2-adrenergic agonists” (VETCARE OY, priority 2014, dated 2018)
# Experiments:
# [1] = tested on: dogs; settings: medetomidine 20 μg/kg IM or 10 μg/kg IV, compared with baseline values; cited from earlier work
# [2] = tested on: beagle dogs; assay: Composite sedation score (0-20) in dogs, medetomidine with or without MK-467 IM, reversal with atipamezole (Example 2); format: in vivo, dog; settings: FIG. 3
# Procedure: Atipamezole (100 μg/kg IM) was administered at 30 min (arrow).
# The study was designed as a prospective, randomized, experimental cross-over study.
# Each dog (n=7) was treated twice with a 14-days washout period: • Medetomidine (20 μg/kg) at 0 min, followed by Atipamezole (100 μg/kg) at 30 min • Medetomidine (20 μg/kg)+MK-467 (400 μg/kg) at 0 min, followed by Atipamezole (100 μg/kg) at 30 min
# Medetomidine and MK-467 were mixed in the same syringe and administered intramuscularly.
# Sedation was scored by a veterinarian blinded for treatment with the following score:
# Composite Sedation Score (0-20)
# • 0 Standing • 1 Standing but staggers • 2 Sternal head up • 3 Sternal head down • 4 Lateral head down 2. […] Position of the Eye (0-2) • 0 Middle • 2 Turned down 4. Jaw and Tongue Relaxation (0-4) • 0 Normal, opens the jaws but resists manipulation of the tongue • 1 Bites jaws together • 2 Opens the jaws but strong resistance when tongue is pulled • 3 Slight resistance when tongue is pulled • 4 No resistance 5. Resistance to Positioning in Lateral Recumbency (0-3) • 0 Normal • 1 Turns back to sternal position • 2 Some resistance but stays in lateral recumbency • 3 No resistance or the position is already lateral 6. […]
# [3] = by reduction in heart rate and cardiac output after medetomidine administration; cited from earlier work
# [4] = tested on: dogs; settings: dexmedetomidine 10 μg/kg IV, MK-467 250, 500 and 750 μg/kg, especially with higher doses; cited from earlier work
compound,measurement,setting,value
"Cc1cccc(C(C)c2cnc[nH]2)c1C (racemic) [medetomidine, (RS)-4-[1-(2,3-dimethylphenyl)ethyl]-3H-imidazole]","heart rate (HR), mixed-venous partial pressure of oxygen (Pvo(2)) and cardiac index (CI)",[1],significantly lower
same,"mean arterial blood pressure (MAP), systemic vascular resistance (SVR) and oxygen extraction ratio (ER)",[1],significantly higher
same,resedation after atipamezole reversal,"[2]; medetomidine 20 μg/kg IM alone or with MK-467 400 μg/kg in the same syringe, atipamezole 100 μg/kg IM at 30 min",resedation seen
same,decrease of global Do2 (oxygen delivery),[3],at least 50%
CCC1(c2cnc[nH]2)Cc2ccccc2C1 [atipamezole],reversal of medetomidine induced sedation,[2]; atipamezole 100 μg/kg IM at 30 min after medetomidine 20 μg/kg IM alone or with MK-467 400 μg/kg,reversed
"Cc1cccc([C@H](C)c2c[nH]cn2)c1C [dexmedetomidine, (S)-4-[1-(2,3-Dimethylphenyl)ethyl]-3H-imidazole]",BIS-values (bispectral index),[4],decreased
